Laboratory results taken from paper PMC5609566, “Elucidation of antimicrobial activity and mechanism of action by N-substituted carbazole derivatives” (Bioorganic & Medicinal Chemistry Letters, 2017).
In brackets after ≈: the same amount, converted by molar mass.

Assays:
[1] = target: T1, S. cerevisiae H^+-ATPase (Saccharomyces cerevisiae, UniProt P05030); assay: NADH-coupled ATPase assay, initial rate of ATP hydrolysis; assay type: biochemical; conditions: pH 7, n = 3
T1 construct: transformed with the full-length cDNA of the S. cerevisiae plasma membrane H^+-ATPase isoform PMA1; made in house; host or cells: S. cerevisiae RS72
Experimental: To investigate whether the ATPase inhibition observed was due to compound binding at the ATP binding site, three compounds (5, 7, and 10) were selected for further evaluation in an ATPase activity assay on S. cerevisiae H^+-ATPase-containing membranes in presence of increasing ATP concentrations. The initial rate of ATP turnover was measured spectrophotometrically by an NADH-coupled ATPase activity assay that uses phosphoenolpyruvate to regenerate ATP, as described in Møller et al., 1980.[18]
Fig. 5 Kinetics of H^+-ATPase inhibition by carbazole compounds. The initial rate of ATP hydrolysis catalyzed by S. cerevisiae H^+-ATPase was determined by an NADH-coupled ATPase assay, as described in the Supporting Information. The reaction was initiated by the addition of H^+-ATPase-containing membranes (arrows with “H^+-ATPase”) to a pH 7 buffer containing 5 mM ATP. At the indicated times the respective compounds were added to give the final compound concentrations shown in the figure and a final DMSO concentration of 1.1%.
Fig. 6 Compound dependence of the initial rate of H^+-ATPase activity at 1 mM (triangles) or 10 mM (circles) ATP. The initial rates following compound addition deduced from experiments similar to those shown in Fig. 5 were normalized to the maximal rate obtained at 10 mM ATP in the absence of compound (presence of 1.1% DMSO) and plotted as a function of the compound concentration.
The initial rate of ATP turnover at RT was measured spectrophotometrically at 340 nm by an NADH-coupled ATPase assay that uses phosphoenolpyruvate to regenerate ATP, as described in Møller et al., 1980^4. The reaction buffer contained 17.5 mM MOPS-NaOH pH 7, 44 mM KNO3, 22 mM NaN3, 0.22 mM Na2MoO4, 1 mM phosphoenolpyruvate, 0.27 mM NADH, 83 µg/ml pyruvate kinase, 22 µg/ml L-lactate dehydrogenase, either 1, 5 or 10 mM ATP, and MgSO4 to give a Mg^2+ concentration of 2 mM in excess over the ATP concentration. The ATPase reaction was initiated by the addition of 0.2-0.3 mg/ml of S. cerevisiae Pma1-containing membranes followed by addition of compound (resulting in a final DMSO concentration of 1.1%).

[2] = system: Aspergillus flavus ATCC MYA-1005; assay: Mold growth inhibition; assay type: cell-based; conditions: Aspergillus flavus ATCC MYA-1005, n=3; read-out: Fungal Growth Inhibition MIC
Description: We subsequently assessed the carbazole series for antifungal activity, as described in Kjellerup et al., 2017.[15] Table 2, Table 3, Table 4, Table 5 list the minimum inhibitory concentrations (MIC) and the minimum fungicidal concentrations (MFC) of the fifteen compounds tested against the yeasts Saccharomyces cerevisiae, Candida albicans, C. krusei, and two isolates of C. glabrata (a wild-type strain ATCC 90030 and a clinical azole-resistant isolate Cg003 with increased efflux pump expression[19]), and the molds Aspergillus fumigatus and A. flavus. MIC was defined as the lowest concentration inhibiting visual growth of the microorganism in RPMI-1640 media. […] However, in several cases antifungal activity against molds was minimal, Table 5.
Compound hits from the library screening were evaluated against baker yeast S. cerevisiae and C. albicans (ATCC 90028). The minimum inhibitory concentration (MIC) was defined as the lowest concentration inhibiting visual growth of the microorganism and this was determined in triplicate. Standard errors were typically less than 5%. MICs for synthesized compounds were determined on the following fungal isolates: Saccharomyces cerevisiae (ATCC 9763), Candida albicans (SC5314), Candida krusei (ATCC 6258), Candida glabrata (ATCC 90030), Aspergillus flavus (ATCC MYA-1005) and Aspergillus fumigatus (ATCC 13073), which were purchased from American Type Culture Collection, and C. glabrata strain Cg003, which was kindly provided by Julius Subik, Comenius University in Bratislava, Slovak Republic. Cg003 is a clinical isolate, characterized to be resistant to fluconazole and itraconazole due to overexpression of the multidrug resistance efflux pumps Cdr1p and Cdr2p^5. The fungal growth assay was performed as described in Kjellerup et al., 2017^6.

[3] = system: Staphylococcus aureus ATCC 29213; assay: Bacterial growth inhibition assay; assay type: cell-based; conditions: ATCC29213; Staphylococcus aureus ATCC 29213, n=3
Description: (§1) To further support the notion that the carbazole H^+-ATPase inhibitors were specific inhibitors of fungal growth, we tested the effect of all fifteen compounds on the growth of two bacterial species; the gram-positive Staphylococcus aureus and the gram-negative Escherichia coli. […] Compound 16 and 17 were interesting as they were potent inhibitors of the ATP hydrolysis in the enzymatic assay and potent H^+-ATPase inhibitors in whole fungal cell assay (iATP and extracellular acidification).
(§2) The bacterial strains used in this study were purchased from DSMZ, Germany. Bacteria cells were grown in Mueller-Hinton broth (MHB) to mid-exponential phase and freeze stocks were prepared at 1-2 × 10^8 CFU/mL in MHB and 20% glycerol and stored at -20 °C. These stocks were used to inoculate bacterial growth assays at a final concentration of 5 × 10^5 CFU/mL in MHB together with 1.5 % DMSO or compound in a 96-well plate and incubated for 16-29 h at 35 °C, whereafter growth was determined by reading at OD600. Kanamycin and ampicillin were used as positive control compounds. Experiments were performed at least twice and standard errors were typically less than 5 %.

[4] = system: Escherichia coli ATCC 25922; assay: Bacterial growth inhibition assay; assay type: cell-based; conditions: ATCC25922; Escherichia coli ATCC 25922, n=3
Description: as §1, §2

T1 sequence (P05030 whole entry, canonical isoform): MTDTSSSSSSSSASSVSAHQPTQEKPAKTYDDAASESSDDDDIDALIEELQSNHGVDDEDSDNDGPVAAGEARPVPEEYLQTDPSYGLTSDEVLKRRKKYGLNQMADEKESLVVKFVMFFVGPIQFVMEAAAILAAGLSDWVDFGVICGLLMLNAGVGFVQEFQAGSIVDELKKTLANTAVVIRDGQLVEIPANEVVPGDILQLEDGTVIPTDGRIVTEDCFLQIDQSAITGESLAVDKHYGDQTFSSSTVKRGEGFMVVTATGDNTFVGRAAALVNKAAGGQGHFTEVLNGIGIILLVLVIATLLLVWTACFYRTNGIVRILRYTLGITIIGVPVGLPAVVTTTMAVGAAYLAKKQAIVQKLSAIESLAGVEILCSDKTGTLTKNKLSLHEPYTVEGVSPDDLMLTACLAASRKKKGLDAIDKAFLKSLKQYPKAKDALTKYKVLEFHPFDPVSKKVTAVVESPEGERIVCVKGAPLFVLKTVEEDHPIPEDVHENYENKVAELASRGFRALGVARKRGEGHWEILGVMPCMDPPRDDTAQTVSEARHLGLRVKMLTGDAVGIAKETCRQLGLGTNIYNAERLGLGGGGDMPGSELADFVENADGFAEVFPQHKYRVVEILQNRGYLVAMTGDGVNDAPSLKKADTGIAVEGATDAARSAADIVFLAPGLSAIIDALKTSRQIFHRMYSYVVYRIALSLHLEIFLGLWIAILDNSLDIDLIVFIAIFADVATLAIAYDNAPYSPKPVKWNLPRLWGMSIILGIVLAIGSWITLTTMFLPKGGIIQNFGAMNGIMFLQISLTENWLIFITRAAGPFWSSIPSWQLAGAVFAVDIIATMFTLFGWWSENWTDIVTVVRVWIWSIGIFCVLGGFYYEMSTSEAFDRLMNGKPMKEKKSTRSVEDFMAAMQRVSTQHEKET

In the case of `OC(Cn1ccnc1)Cn1c2ccc(Cl)cc2c2cc(Cl)ccc21` (stereo not drawn) [Compound 5, 1-(3,6-dichloro-9H-carbazol-9-yl)-3-(1H-imidazol-1-yl)propan-2-ol], the IC50 ([1]; 1 mM ATP) is reported as 78 ± 14.9 µM, the IC50 ([1]; 10 mM ATP) is reported as 60 ± 14.2 µM and the MIC [2] is reported as over 75 µM. It also gave an MIC [3] of 7.5 µM (≈ 2.7 µg/mL) and an MIC [4] of over 75 µM.

`OC(Cn1cncn1)Cn1c2ccc(Cl)cc2c2cc(Cl)ccc21` (stereo not drawn) [Compound 6, 1-(3,6-dichloro-9H-carbazol-9-yl)-3-(1H-1,2,4-triazol-1-yl)propan-2-ol] gave an MIC [2] of over 75 µM, an MIC [3] of 41 µM (≈ 14.8 µg/mL) and an MIC [4] of over 75 µM.

With `OC(CN1CCOCC1)Cn1c2ccc(Cl)cc2c2cc(Cl)ccc21` (stereo not drawn) [Compound 7, 1-(3,6-dichloro-9H-carbazol-9-yl)-3-morpholinopropan-2-ol] the IC50 ([1]; 1 mM ATP) was 29.7 ± 6.7 µM, the IC50 ([1]; 10 mM ATP) was 16.8 ± 1.7 µM and the MIC [2] was over 75 µM. For the same compound, the MIC [3] was 41 µM (≈ 15.6 µg/mL) and the MIC [4] was over 75 µM.

With `CN1CCN(CC(O)Cn2c3ccc(Cl)cc3c3cc(Cl)ccc32)CC1` (stereo not drawn) [Compound 8, 1-(3,6-dichloro-9H-carbazol-9-yl)-3-(4-methylpiperazin-1-yl)propan-2-ol] the MIC [2] was over 75 µM, the MIC [3] was 64 µM (≈ 25.1 µg/mL) and the MIC [4] was 75 µM (≈ 29.4 µg/mL).

`O=C(O)C1CCN(CC(O)Cn2c3ccc(Cl)cc3c3cc(Cl)ccc32)CC1` (stereo not drawn) [Compound 9, 1-(3-(3,6-dichloro-9H-carbazol-9-yl)-2-hydroxypropyl)piperidine-4-carboxylic acid] gave an MIC [2] of over 75 µM, an MIC [3] of 75 µM (≈ 31.6 µg/mL) and an MIC [4] of over 75 µM.

For `CCC(C)NCC(O)Cn1c2ccc(Cl)cc2c2cc(Cl)ccc21` (stereo not drawn) [Compound 10, 1-(sec-butylamino)-3-(3,6-dichloro-9H-carbazol-9-yl)propan-2-ol], the IC50 ([1]; 1 mM ATP) was 4.5 ± 0.5 µM, the IC50 ([1]; 10 mM ATP) was 6.3 ± 1.2 µM and the MIC [2] was 12 µM (≈ 4.38 µg/mL). It also gave an MIC [3] of 2.9 µM (≈ 1.06 µg/mL) and an MIC [4] of 20 µM (≈ 7.31 µg/mL).

`COc1ccc2c(c1)c1cc(OC)ccc1n2CC(O)CN1CCN(C)CC1` (stereo not drawn) [Compound 11, 1-(3,6-dimethoxy-9H-carbazol-9-yl)-3-(4-methylpiperazin-1-yl)propan-2-ol] showed an MIC [2] of over 75 µM, an MIC [3] of over 75 µM and an MIC [4] of over 75 µM.

`CN1CCN(CC(O)Cn2c3ccc(C#N)cc3c3cc(C#N)ccc32)CC1` (stereo not drawn) [Compound 12, 9-(2-hydroxy-3-(4-methylpiperazin-1-yl)propyl)-9H-carbazole-3,6-dicarbonitrile] was tested, and the MIC [2] was over 75 µM, the MIC [3] was over 75 µM and the MIC [4] was over 75 µM.

`CN1CCN(CC(O)Cn2c3ccc(O)cc3c3cc(O)ccc32)CC1` (stereo not drawn) [Compound 13, 9-(2-hydroxy-3-(4-methylpiperazin-1-yl)propyl)-9H-carbazole-3,6-diol] showed an MIC [2] of over 75 µM, an MIC [3] of over 75 µM and an MIC [4] of over 75 µM.

`CN(C)CCCn1c2ccc(Cl)cc2c2cc(Cl)ccc21` [Compound 14, 3-(3,6-dichloro-9H-carbazol-9-yl)-N,N-dimethyl-propan-1-amine] was tested, and the MIC [2] was over 75 µM, the MIC [3] was 7.5 µM (≈ 2.41 µg/mL) and the MIC [4] was 75 µM (≈ 24.1 µg/mL).

Compound `CN(C)CCCCn1c2ccc(Cl)cc2c2cc(Cl)ccc21` [Compound 15] has an MIC [2] of 75 µM (≈ 25.1 µg/mL), an MIC [3] of 24 µM (≈ 8.05 µg/mL) and an MIC [4] of 75 µM (≈ 25.1 µg/mL).

With `CN1CCN(CCCn2c3ccc(Cl)cc3c3cc(Cl)ccc32)CC1` [Compound 16, 3,6-dichloro-9-(3-(4-methylpiperazin-1-yl)propyl)-9H-carbazole] the MIC [2] was 24 µM (≈ 9.03 µg/mL), the MIC [3] was 24 µM (≈ 9.03 µg/mL) and the MIC [4] was 75 µM (≈ 28.2 µg/mL).

With `Clc1ccc2c(c1)c1cc(Cl)ccc1n2CCCN1CCOCC1` [Compound 18, 4-(3-(3,6-dichloro-9H-carbazol-9-yl)propyl)morpholine] the MIC [2] was over 75 µM, the MIC [3] was over 75 µM and the MIC [4] was over 75 µM.
